In ChEMBL document CHEMBL1155017, “The use of natural product scaffolds as leads in the search for trypanothione reductase inhibitors” (Bioorg Med Chem, 2008):
Activity calls are given as the source filed them. The rule behind the calls is not given here.

Tests used:
Leishmania amazonensis [1] = assay: Antileishmanial activity against Leishmania amazonensis MHOM/BR/76/LTB-012 promastigotes at 100 uM after 72 hrs by alamar blue assay; type: functional; conditions: MHOM/BR/76/LTB-012, 72 h, read-out: GI
[2] = target: Trypanothione reductase (Trypanosoma cruzi) (UniProt P28593); assay: Inhibition of Trypanosoma cruzi recombinant trypanothione reductase at 85 uM
Trypanothione reductase [3] = target: T1, Trypanothione reductase (Trypanosoma cruzi, UniProt P28593); assay: (§1) Inhibition of Trypanosoma cruzi recombinant trypanothione reductase
[4] = target: Trypanothione reductase (Trypanosoma cruzi) (UniProt P28593); assay: as §1
[5] = target: T2, Glutathione reductase (Saccharomyces cerevisiae S288c) (UniProt P41921); assay: Inhibition of yeast glutathione reductase at 100 uM
T2 sequence (whole entry): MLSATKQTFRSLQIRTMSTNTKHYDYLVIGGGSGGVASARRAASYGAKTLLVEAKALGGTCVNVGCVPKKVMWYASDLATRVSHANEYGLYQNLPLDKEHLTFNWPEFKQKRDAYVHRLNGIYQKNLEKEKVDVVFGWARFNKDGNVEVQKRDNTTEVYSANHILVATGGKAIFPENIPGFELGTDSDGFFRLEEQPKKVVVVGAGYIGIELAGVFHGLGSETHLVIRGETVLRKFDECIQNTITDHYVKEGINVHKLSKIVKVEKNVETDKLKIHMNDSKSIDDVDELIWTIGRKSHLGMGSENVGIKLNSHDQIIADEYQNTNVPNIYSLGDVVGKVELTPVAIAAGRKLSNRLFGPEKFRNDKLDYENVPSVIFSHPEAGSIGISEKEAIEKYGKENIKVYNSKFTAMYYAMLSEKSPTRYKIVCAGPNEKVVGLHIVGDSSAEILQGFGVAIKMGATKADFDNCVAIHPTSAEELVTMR

[6] = target: T2, Glutathione reductase (Saccharomyces cerevisiae S288c); assay: Inhibition of yeast glutathione reductase at 10 uM
NIH3T3 = assay: Cytotoxicity against mouse NIH3T3 cells; type: cell-based
Trypanothione reductase [7] = target: T1, Trypanothione reductase; assay: Inhibition of Trypanosoma cruzi recombinant trypanothione reductase-substrate complex
[8] = target: Trypanothione reductase (Trypanosoma cruzi) (UniProt P28593); assay: Inhibition of Trypanosoma cruzi recombinant trypanothione reductase at 12.2 uM
[9] = target: Trypanothione reductase (Trypanosoma cruzi) (UniProt P28593); assay: Inhibition of Trypanosoma cruzi recombinant trypanothione reductase at 400 uM
[10] = target: Trypanothione reductase (Trypanosoma cruzi) (UniProt P28593); assay: Inhibition of Trypanosoma cruzi recombinant trypanothione reductase at 800 uM
[11] = target: Trypanothione reductase (Trypanosoma cruzi) (UniProt P28593); assay: Inhibition of Trypanosoma cruzi recombinant trypanothione reductase at 200 uM
Leishmania infantum = assay: Antileishmanial activity against Leishmania infantum promastigotes; type: functional, organism-based
Trypanothione reductase [12] = target: T3, Trypanothione reductase (Crithidia fasciculata, UniProt P39040); assay: Inhibition of Crithidia fasciculata trypanothione reductase-substrate complex
Trypanothione reductase [13] = target: T3, Trypanothione reductase; assay: Inhibition of Crithidia fasciculata free trypanothione reductase
Leishmania amazonensis [14] = assay: Antileishmanial activity against Leishmania amazonensis MHOM/BR/76/LTB-012 promastigotes after 72 hrs by alamar blue assay; type: functional, organism-based; conditions: MHOM/BR/76/LTB-012, 72 h

Trypanothione reductase (Trypanosoma cruzi), sequence (P28593 whole entry, looked up): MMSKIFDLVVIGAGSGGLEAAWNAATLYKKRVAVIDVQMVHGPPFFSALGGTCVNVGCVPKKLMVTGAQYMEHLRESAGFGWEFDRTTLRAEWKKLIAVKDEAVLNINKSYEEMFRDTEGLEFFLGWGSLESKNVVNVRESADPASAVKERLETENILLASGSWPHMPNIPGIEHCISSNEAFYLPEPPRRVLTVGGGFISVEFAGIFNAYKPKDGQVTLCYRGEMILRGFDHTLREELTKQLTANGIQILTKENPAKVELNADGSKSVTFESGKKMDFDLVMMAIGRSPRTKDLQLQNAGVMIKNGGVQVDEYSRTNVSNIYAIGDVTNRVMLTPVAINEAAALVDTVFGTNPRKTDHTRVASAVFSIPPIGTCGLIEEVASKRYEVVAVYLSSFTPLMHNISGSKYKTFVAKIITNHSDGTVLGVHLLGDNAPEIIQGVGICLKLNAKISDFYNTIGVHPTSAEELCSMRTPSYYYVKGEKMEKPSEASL
T1 sequence (P28593 whole entry): as the sequence (P28593 whole entry, looked up) above
T3 sequence (P39040 whole entry): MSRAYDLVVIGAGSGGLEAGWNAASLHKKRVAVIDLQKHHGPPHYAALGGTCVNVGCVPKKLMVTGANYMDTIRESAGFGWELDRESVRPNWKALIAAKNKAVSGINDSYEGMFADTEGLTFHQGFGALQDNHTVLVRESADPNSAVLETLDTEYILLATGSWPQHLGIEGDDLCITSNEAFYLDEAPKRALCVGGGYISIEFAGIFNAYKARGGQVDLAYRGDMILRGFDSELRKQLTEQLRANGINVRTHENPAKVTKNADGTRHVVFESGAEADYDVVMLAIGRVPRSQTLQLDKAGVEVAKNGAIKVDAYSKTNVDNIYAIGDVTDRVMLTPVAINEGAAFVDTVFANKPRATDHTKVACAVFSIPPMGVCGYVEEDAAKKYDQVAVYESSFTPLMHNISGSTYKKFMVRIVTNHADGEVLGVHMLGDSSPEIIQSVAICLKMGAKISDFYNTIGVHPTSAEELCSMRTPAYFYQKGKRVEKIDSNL

SMILES: C=CC1CN2CCC1CC2C(O)c1ccnc2ccccc12 (centres undefined)
- inhibition of growth at 100 µM (Leishmania amazonensis [1]): 51%
- inhibition [2]: 18%

SMILES: COc1cc(CC2NCCc3c2[nH]c2ccccc32)ccc1O (centres undefined)
- Ki (Trypanothione reductase [3]): 7 µM

SMILES: O=C1CC[C@]23/C=C/C(=O)NCCCCNCCCNC(=O)/C=C\c4ccc(c2c4)O[C@@H]3C1
- Ki (Trypanothione reductase [3]): 144 µM
- Kinact [4]: 0.116 min⁻¹

SMILES: CN(C)CCCn1c2c(c(=O)n(CCCN(C)C)c1=O)Nc1ccccc1S2
- Ki (Trypanothione reductase [3]): 26.9 µM
- Activity [5]: inactive
- inhibition of growth at 100 µM (Leishmania amazonensis [1]): 11%
- inhibition [2]: 62%

SMILES: CC1=CC2c3cccc4[nH]cc(c34)C[C@H]2N(C)C1 (some centres undefined)
- inhibition of growth at 100 µM (Leishmania amazonensis [1]): 70%
- inhibition [2]: 28%

SMILES: COc1ccc2c3c(n(CCCN(C)C)c2c1)C(C)=NCC3
- Ki (Trypanothione reductase [3]): 35.1 µM
- inhibition [5]: 6%
- inhibition of growth at 100 µM (Leishmania amazonensis [1]): 57%
- inhibition [2]: 50%

SMILES: N#Cc1ccc(C2NCCc3c2[nH]c2ccccc32)cc1 (centres undefined)
- Ki (Trypanothione reductase [3]): 2 µM

SMILES: CN(C)CCCn1c2ccccc2c2ccncc21
- inhibition [2]: 20%

SMILES: CN(C)CCc1cn(C)c2ccc(O)cc12
- inhibition [2]: 9%

SMILES: CN(C)Cc1cn(C)c2ccccc12
- inhibition [2]: 8%

SMILES: CN(C)c1ccc2nc3ccc(=[N+](C)C)cc-3sc2c1
- inhibition [6]: 30%

SMILES: COc1ccc(-c2cc(=O)c3c(O)cc(OC)cc3o2)cc1
- inhibition [2]: 12%

SMILES: COc1ccc2c(c1)[nH]c1c(C)nccc12
- inhibition [2]: 11%

SMILES: COc1ccc2c3ccnc(C)c3n(CCCN(C)C)c2c1
- inhibition [2]: 13%

SMILES: C[C@@H]1CN(CCCn2c3ccccc3c3ccccc32)C[C@H](C)N1
- inhibition [2]: 4%

SMILES: Cc1nccc2c1[nH]c1ccccc12
- inhibition [2]: 10%

SMILES: Cc1nccc2c3ccccc3n(CCCN(C)C)c12
- inhibition [2]: 22%

SMILES: O=C(/C=C/C=C/c1ccc2c(c1)OCO2)N1CCCCC1
- inhibition [2]: 11%

SMILES: O=c1cc(-c2ccc(O)cc2)oc2cc(O)cc(O)c12
- inhibition [2]: 13%

SMILES: c1ccc2c(c1)[nH]c1cnccc12
- inhibition [2]: 10%

SMILES: CC[C@H]1[C@@H]2C[C@H]3[C@@H]4N(C)c5ccccc5[C@]45C[C@@H]([C@@H]2[C@H]5O)N3[C@@H]1O [AJMALINE]
- inhibition of growth at 100 µM (Leishmania amazonensis [1]): 5%
- inhibition [2]: 12%

SMILES: CC[C@@]12CCCN3CC[C@]4(c5cccc(OC)c5N(C(C)=O)[C@@H]4CC1)[C@H]32 [ASPIDOSPERMINE]
- IC50 (Trypanothione reductase [3]): 90.4 µM
- Ki (Trypanothione reductase [3]): 64.6 µM
- IC50 (NIH3T3): 46.2 µM
- Activity [5]: inactive
- inhibition of growth at 100 µM (Leishmania amazonensis [1]): 89%
- inhibition [2]: 43%

SMILES: COc1ccc2cc1Oc1ccc(cc1)C[C@H]1c3c(cc4c(c3Oc3cc5c(cc3OC)CCN(C)[C@@H]5C2)OCO4)CCN1C [CEPHARANTHINE]
- Ki (Trypanothione reductase [3]): 7.6 µM
- Ki (Trypanothione reductase [7]): 51.6 µM

SMILES: CN(C)CCCN1c2ccccc2Sc2ccc(Cl)cc21 [CHLORPROMAZINE]
- IC50 (Trypanothione reductase [3]): 5.8 µM
- Ki (Trypanothione reductase [3]): 3.2 µM
- inhibition [8]: 70%

SMILES: COC(=O)NC1CCc2cc(OC)c(OC)c(OC)c2-c2ccc(OC)c(=O)cc21 (centres undefined) [COLCHININE]
- inhibition of growth at 100 µM (Leishmania amazonensis [1]): 6%
- inhibition [2]: 8%

SMILES: C[C@H]1[C@H]2CC[C@H]3[C@@H]4CC=C5C[C@@H](N(C)C)CC[C@]5(C)[C@H]4CC[C@]23CN1C [CONESSINE]
- inhibition [9]: 73%
- inhibition [10]: 91%
- inhibition [11]: 45%
- inhibition of growth at 100 µM (Leishmania amazonensis [1]): 97%
- inhibition [2]: 25%

SMILES: COc1ccc2c3c([nH]c2c1)C(C)=NCC3 [HARMALINE]
- IC50 (Leishmania infantum): 119 µM
- inhibition [2]: 19%

SMILES: O=C(CCc1ccc(O)c(O)c1)NCCCNCCCCNCCCNC(=O)CCc1ccc(O)c(O)c1 [KUKOAMINE A]
- Ki (Trypanothione reductase [12]): 13 µM
- Ki (Trypanothione reductase [13]): 1.8 µM

SMILES: N=C(N)c1ccc(OCCCCCOc2ccc(C(=N)N)cc2)cc1 [PENTAMIDINE]
- IC50 (Leishmania amazonensis [14]): 0.29 µM
- inhibition of growth at 100 µM (Leishmania amazonensis [1]): 86%

SMILES: O=c1[nH]c2c(c(=O)[nH]1)CNc1ccccc1S2 [PYRIMIDOBENZOTHIAZEPINE]
- inhibition of growth at 100 µM (Leishmania amazonensis [1]): 14%
- inhibition [2]: 10%

SMILES: O=c1[nH]c2c(c(=O)[nH]1)Nc1ccccc1S2 [PYRIMIDOBENZOTHIAZINE]
- inhibition of growth at 100 µM (Leishmania amazonensis [1]): 15%
- inhibition [2]: 36%
